According to patent US20260272895A1, “METHODS AND KITS FOR DELIVERY OF COMPOUNDS INTO CELLS” (Yale University, priority 2023, published 2026):

Test system: brain cell types
Assay: In vivo two-photon imaging of mouse cortex after topical cortical administration of fluorophores
Details: for endothelial cell labeling/uptake after topical application to the brain: topical cortical application; for Target: cell type taking up the compound in vivo (Table 1)
Description: Briefly, animals are anaesthetized via intraperitoneal injections of ketamine/xylazine or via inhaled isoflurane. A region of the skull (3×3 mm) is gently removed with a high-speed drill and the underlying dura is removed. A small glass coverslip is placed over the skull to allow long term optical access for in vivo imaging. Labeling with fluorescent dyes is performed either via intravenous injections or topically application to the cortical surface for 20 min prior to glass cover placement. After recovery, in vivo images are acquired using a two-photon microscope (Bruker Technologies) equipped with a multimodal (fixed wavelength 1040 nm and tunable wavelength) InSight X3 two-photon laser (Spectra Physics) and 20× water immersion objective (Zeiss 1.0N.A.). The two-photon laser is appropriately tuned to excite particular fluorescent dyes and proteins as needed. In selected cases, following in vivo imaging, mice will be sacrificed and perfused for follow up immunohistochemistry and high-resolution confocal imaging (Leica SP8) to further confirm colocalization of dyes and cells expressing particular transporters.
One-month-old wild-type mice were anesthetized using a ketamine/xylazine solution at doses of 100 mg/kg and 10 mg/kg, respectively. The fur around the skull area was shaved, and buprenex (0.1 mg per kg) and carprofen (5 mg per kg) were administered subcutaneously. Mice were kept on a heating pad at 37° C., and anesthesia was periodically monitored. The skin was treated with povidone-iodine solution, followed by cleaning with ethanol, and eye ointment was applied. A small skin section was excised to expose the skull. Thinning of the skull was performed in a circular area, followed by delicately lifting of the remaining skull without harm to the underlying brain. Within the circular region, the dura was gently removed using fine forceps, and a 4 mm cover glass was softly pressed onto the brain surface and affixed to the skull. Fluorescent dyes were applied either through intravenous injections or topically to the cortical surface for 20 minutes before placing the glass cover. A customized head bar was attached either by adhesive (for acute imaging) or permanently implanted (using dental cement, for chronic imaging) onto the skull. Mice were imaged under a two-photon microscope (Prairie Technologies) with a mode-locked MaiTai tunable laser (Spectra Physics). Imaging was performed with a 20× water immersion objective (Zeiss, 1.0NA). Images were captured at depths up to 300 μm from the pial surface using excitation wavelengths ranging from 750 to 950 nm as previously described. Mice undergoing chronic imaging received a recovery period on a heating pad post-surgery, and buprenex (0.1 mg per kg) and carprofen (5 mg per kg) were administered for 3 days.
Batches of 10 compounds were applied through the craniotomy to the cortical surface before placing a cover glass window. No additional washings were performed, and the cover glass was placed, allowing up to 3 hours of imaging of the cortical surface with a two-photon microscope. Following imaging, the data were analyzed to identify potential patterns of cell-specific labeling. […] Positive batches underwent three additional rounds of imaging, with each batch being sequentially split, until a single compound displaying cell-type-specific labeling was identified. As these compounds were not initially purified, the labeling may have resulted from fluorescent byproducts of synthesis. Consequently, large-scale synthesis, purification and characterization (FIGS. 29A-29D) of the identified compounds were conducted. The purified compounds were subsequently retested using in vivo imaging to confirm cell type specificity.
It was reasoned that the best strategy to identify fluorophores with specific affinity to certain cell types and transport mechanisms would be by direct screening in the intact in vivo brain microenvironment. […]

| SMILES | endothelial cell labeling/uptake after topical application to the brain | Target |
| --- | --- | --- |
| CN(Cc1cnc2nc(NS(=O)(=O)c3ccc(C4=c5cc6c7c(c5Oc5cc(Br)ccc54)CCC[N+]=7CCC6)c(S(=O)(=O)[O-])c3)nc(N)c2n1)c1ccc(C(=O)N[C@@H](CCC(=O)O)C(=O)O)cc1 [52a/52b] | very strong |  |
| O=S(=O)([O-])c1cc(S(=O)(=O)O)ccc1C1=c2cc3c4c(c2Oc2cc(F)ccc21)CCC[N+]=4CCC3 [Compound 2, 2-(12-fluoro-1,2,3,5,6,7-hexahydrochromeno[2,3-f]pyrido[3,2,1-ij]quinolin-4-ium-9-yl)-5-sulfobenzenesulfonate] | selectively labeling endothelial cells in vivo | Endothelial |
| O=S(=O)([O-])c1cc(S(=O)(=O)O)ccc1C1=c2cc3c4c(c2Oc2cc(Cl)ccc21)CCC[N+]=4CCC3 [Compound 3, 2-(12-chloro-1,2,3,5,6,7-hexahydrochromeno[2,3-f]pyrido[3,2,1-ij]quinolin-4-ium-9-yl)-5-sulfobenzenesulfonate] |  | Endothelial |
| O=S(=O)([O-])c1cc(S(=O)(=O)O)ccc1C1=c2cc3c4c(c2Oc2cc(I)ccc21)CCC[N+]=4CCC3 [Compound 4, 2-(12-iodo-1,2,3,5,6,7-hexahydrochromeno[2,3-f]pyrido[3,2,1-ij]quinolin-4-ium-9-yl)-5-sulfobenzenesulfonate] | selectively labeling endothelial cells in vivo | Endothelial |
| O=S(=O)([O-])c1cc(S(=O)(=O)O)ccc1C1=c2cc3c4c(c2Oc2c(Br)cccc21)CCC[N+]=4CCC3 [Compound 5, 2-(13-bromo-1,2,3,5,6,7-hexahydrochromeno[2,3-f]pyrido[3,2,1-ij]quinolin-4-ium-9-yl)-5-sulfobenzenesulfonate] |  | Endothelial |
| O=S(=O)([O-])c1cc(S(=O)(=O)O)ccc1C1=c2cc3c4c(c2Oc2ccc(Br)cc21)CCC[N+]=4CCC3 [Compound 6, 2-(11-bromo-1,2,3,5,6,7-hexahydrochromeno[2,3-f]pyrido[3,2,1-ij]quinolin-4-ium-9-yl)-5-sulfobenzenesulfonate] |  | Endothelial |
| O=S(=O)([O-])c1cc(S(=O)(=O)O)ccc1C1=c2cc3c4c(c2Oc2c(Br)cc(Br)cc21)CCC[N+]=4CCC3 [Compound 7, 2-(11,13-dibromo-1,2,3,5,6,7-hexahydrochromeno[2,3-f]pyrido[3,2,1-ij]quinolin-4-ium-9-yl)-5-sulfobenzenesulfonate] |  | Endothelial |
| O=S(=O)([O-])c1cc(S(=O)(=O)O)ccc1C1=c2cc3c4c(c2Oc2cc(F)c(F)cc21)CCC[N+]=4CCC3 [Compound 8, 2-(11,12-difluoro-1,2,3,5,6,7-hexahydrochromeno[2,3-f]pyrido[3,2,1-ij]quinolin-4-ium-9-yl)-5-sulfobenzenesulfonate] |  | Endothelial |
| O=S(=O)([O-])c1cc(S(=O)(=O)O)ccc1C1=c2cc3c4c(c2Oc2cc(F)c(Cl)cc21)CCC[N+]=4CCC3 [Compound 9, 2-(11-chloro-12-fluoro-1,2,3,5,6,7-hexahydrochromeno[2,3-f]pyrido[3,2,1-ij]quinolin-4-ium-9-yl)-5-sulfobenzenesulfonate] |  | Endothelial |
| O=S(=O)([O-])c1cc(S(=O)(=O)O)ccc1C1=c2cc3c4c(c2Oc2cc(F)c(Br)cc21)CCC[N+]=4CCC3 [Compound 10, 2-(11-bromo-12-fluoro-1,2,3,5,6,7-hexahydrochromeno[2,3-f]pyrido[3,2,1-ij]quinolin-4-ium-9-yl)-5-sulfobenzenesulfonate] |  | Endothelial |
| O=S(=O)([O-])c1cc(S(=O)(=O)O)ccc1C1=c2cc3c4c(c2Oc2cc(Cl)c(F)cc21)CCC[N+]=4CCC3 [Compound 11, 2-(12-chloro-11-fluoro-1,2,3,5,6,7-hexahydrochromeno[2,3-f]pyrido[3,2,1-ij]quinolin-4-ium-9-yl)-5-sulfobenzenesulfonate] |  | Endothelial |
| O=S(=O)([O-])c1cc(S(=O)(=O)O)ccc1C1=c2cc3c4c(c2Oc2cc(Cl)c(Cl)cc21)CCC[N+]=4CCC3 [Compound 12, 2-(11,12-dichloro-1,2,3,5,6,7-hexahydrochromeno[2,3-f]pyrido[3,2,1-ij]quinolin-4-ium-9-yl)-5-sulfobenzenesulfonate] |  | Endothelial |
| O=S(=O)([O-])c1cc(S(=O)(=O)O)ccc1C1=c2cc3c4c(c2Oc2cc(Cl)c(Br)cc21)CCC[N+]=4CCC3 [Compound 13, 2-(11-bromo-12-chloro-1,2,3,5,6,7-hexahydrochromeno[2,3-f]pyrido[3,2,1-ij]quinolin-4-ium-9-yl)-5-sulfobenzenesulfonate] |  | Endothelial |
| O=S(=O)([O-])c1cc(S(=O)(=O)O)ccc1C1=c2cc3c4c(c2Oc2cc(Br)c(F)cc21)CCC[N+]=4CCC3 [Compound 14, 2-(12-bromo-11-fluoro-1,2,3,5,6,7-hexahydrochromeno[2,3-f]pyrido[3,2,1-ij]quinolin-4-ium-9-yl)-5-sulfobenzenesulfonate] |  | Endothelial |
| O=S(=O)([O-])c1cc(S(=O)(=O)O)ccc1C1=c2cc3c4c(c2Oc2cc(Br)c(Cl)cc21)CCC[N+]=4CCC3 [Compound 15, 2-(12-bromo-11-chloro-1,2,3,5,6,7-hexahydrochromeno[2,3-f]pyrido[3,2,1-ij]quinolin-4-ium-9-yl)-5-sulfobenzenesulfonate] |  | Endothelial |
| O=S(=O)([O-])c1cc(S(=O)(=O)O)ccc1C1=c2cc3c4c(c2Oc2cc(I)c(Cl)cc21)CCC[N+]=4CCC3 [Compound 16, 2-(11-chloro-12-iodo-1,2,3,5,6,7-hexahydrochromeno[2,3-f]pyrido[3,2,1-ij]quinolin-4-ium-9-yl)-5-sulfobenzenesulfonate] |  | Endothelial |
| O=S(=O)([O-])c1cc(S(=O)(=O)O)ccc1C1=c2cc3c4c(c2Oc2c1ccc(F)c2F)CCC[N+]=4CCC3 [Compound 19, 2-(12,13-difluoro-1,2,3,5,6,7-hexahydrochromeno[2,3-f]pyrido[3,2,1-ij]quinolin-4-ium-9-yl)-5-sulfobenzenesulfonate] |  | Endothelial |
| O=S(=O)([O-])c1cc(S(=O)(=O)O)ccc1C1=c2cc3c4c(c2Oc2c1ccc(Cl)c2F)CCC[N+]=4CCC3 [Compound 20, 2-(12-chloro-13-fluoro-1,2,3,5,6,7-hexahydrochromeno[2,3-f]pyrido[3,2,1-ij]quinolin-4-ium-9-yl)-5-sulfobenzenesulfonate] |  | Endothelial |
| O=S(=O)([O-])c1cc(S(=O)(=O)O)ccc1C1=c2cc3c4c(c2Oc2c1ccc(Br)c2F)CCC[N+]=4CCC3 [Compound 21, 2-(12-bromo-13-fluoro-1,2,3,5,6,7-hexahydrochromeno[2,3-f]pyrido[3,2,1-ij]quinolin-4-ium-9-yl)-5-sulfobenzenesulfonate] |  | Endothelial |
| O=S(=O)([O-])c1cc(S(=O)(=O)O)ccc1C1=c2cc3c4c(c2Oc2c1ccc(F)c2Cl)CCC[N+]=4CCC3 [Compound 22, 2-(13-chloro-12-fluoro-1,2,3,5,6,7-hexahydrochromeno[2,3-f]pyrido[3,2,1-ij]quinolin-4-ium-9-yl)-5-sulfobenzenesulfonate] |  | Endothelial |
| O=S(=O)([O-])c1cc(S(=O)(=O)O)ccc1C1=c2cc3c4c(c2Oc2c1ccc(Cl)c2Cl)CCC[N+]=4CCC3 [Compound 23, 2-(12,13-dichloro-1,2,3,5,6,7-hexahydrochromeno[2,3-f]pyrido[3,2,1-ij]quinolin-4-ium-9-yl)-5-sulfobenzenesulfonate] |  | Endothelial |
| O=[N+]([O-])c1ccc2c(-c3ccc(S(=O)(=O)O)cc3S(=O)(=O)[O-])c3ccc(Br)cc3[o+]c2c1 [Compound 28, 2-(3-bromo-6-nitroxanthylium-9-yl)-5-sulfobenzenesulfonate] |  | Endothelial |
| Cc1ccc2c(-c3ccc(S(=O)(=O)O)cc3S(=O)(=O)[O-])c3ccc(Br)cc3[o+]c2c1 [Compound 29] |  | Endothelial |
| O=S(=O)([O-])c1cc(S(=O)(=O)O)ccc1-c1c2ccc(Br)cc2[o+]c2cc(N3CCOCC3)ccc12 [Compound 30, 2-(3-bromo-6-morpholinoxanthylium-9-yl)-5-sulfobenzenesulfonate] |  | Endothelial |
